These results are taken from paper PMC7288058, “Modulating the Properties of Fe(III) Macrocyclic MRI Contrast Agents by Appending Sulfonate or Hydroxyl Groups” (Molecules, 2020).

Data set [1] in a line: T1/T2 relaxivity measurements (4.7 T MRI scanner, 9.4 T NMR). The note with it: pH 7.4, 37 °C; for r1 4.7 T / r2 4.7 T / r1 9.4 T: buffer. The protocol: The r1 and r2 relaxivity of the three complexes in buffer and HSA on a 4.7-T MRI scanner and 9.4-T NMR spectrometer are shown in Table 2. In buffer, the r1 relaxivity values of Fe(L1)(OH2) and Fe(L3)(OH2) are similar at 2.0 mM^−1∙s^−1 and 2.2. mM^−1∙s^−1, respectively, at 4.7 T. Both complexes have higher relaxivity than Fe(EDTA) (1.4 mM^−1∙s^−1 at 4.7 T) which has a single exchangeable inner-sphere water molecule. The r1 relaxivity value of the […] complex in buffer is two-fold less (1.0 mM^−1∙s^−1) than that of Fe(L1)(OH2) or […] at 4.7 T. In HSA-containing solutions, the r1 relaxivity values of Fe(L1)(OH2), Fe(L2) and Fe(L3)(OH2) change slightly, consistent with weak binding to this blood protein. […] As expected, increasing the field strength from 4.7 T to 9.4 T caused a decrease in the r1 relaxivity value of Gd(DTPA) to 2.5 mM^−1∙s^−1 from 3.1 mM^−1∙s^−1 [19]. […] This peculiar feature of Fe(III) complexes was predicted from simulation of NMRD profiles.
Relaxivity of the complexes was determined at 4.7 T (small animal MRI) and 9.4 T (400 MHz NMR). Both T1 and T2 experiments were performed at 37 °C for the concentration range of 50.0 µM to 0.400 mM Fe(III) complex. The solutions contained 0.100 M NaCl and HEPES buffer (pH 7.4, 20 mM). An inversion recovery True FISP acquisition was used to measure T1 relaxation rate constants. T2 relaxation rates were measured by using multi-echo, Carr–Purcell–Meiboom–Gill spin-echo sequence with a fixed TR of 3000 ms and TE times ranging from 20–1200 ms. The T1 and T2 relaxivity values were calculated by using linear regression fitting of 1/T1 (s^−1) and 1/T2 (s^−1) versus concentration (mM) in Microsoft Excel.

Data set [2] can be described thus: Cyclic voltammetry, Fe(III)/Fe(II) electrode potential. Type of data set: physicochemical. Conditions: for electrode potential (E1/2) vs. Ag/AgCl: 0.10 M potassium chloride. The method, then:
Cyclic voltammetry experiments were carried out in aqueous solutions containing 0.10 M potassium chloride at acidic and neutral pH values with potassium ferricyanide salt in aqueous solution as a reference (Figure S8, Supplementary Materials). […] The electrode potential (E1/2) of Fe(L1)(OH2) at pH 3 was 227 mV vs. Ag/AgCl (515 mV vs. normal hydrogen electrode, NHE) and was −209 mV vs. Ag/AgCl (79 mV vs. NHE) at pH 7. […] At pH 3 the E1/2 was estimated as 264 mV vs. Ag/AgCl (552 mV vs. NHE), and, at pH 7, it was estimated as −618 mV vs. Ag/AgCl (−330 mV vs. NHE). For comparison, the E1/2 of Fe(L3)(OH2) at pH 3 was reported as 112 mV vs. Ag/AgCl (400 mV vs. NHE) and, at pH 7, the value was −588 mV vs. Ag/AgCl (−300 mV vs. NHE).
Cyclic voltammetry measurements were performed in 10.0-mL aqueous solutions containing 0.100 M […] as supporting electrolyte and 1.00 mM Fe(III) complexes. A standard three-electrode cell was used with a polished glassy carbon as the working electrode, a Pt wire as the auxiliary electrode, and an Ag/AgCl (1.00 mM) reference electrode. The samples were purged with extra pure N2 gas to remove the dissolved oxygen for each measurement. Current was measured with a 10-s prescan delay between −1.5 V and 1.5 V at a sweep rate of 100 and 500 mV/s, where 1.00 mM ferrocyanide was used as a standard solution. The redox potential of Fe(II)/(III) was calculated from the anodic (Epa) and cathodic (Epc) potentials, as EFe(II)/(III) = (Epa + Epc)/2 in reference to Ag/AgCl (1.00 mM), then converted to a value referenced to the normal hydrogen electrode (NHE).

Molecules are shown by their SMILES. Several values for one entry are separate records, joined by “and”; a condition that tells them apart may be missing. Equal entries are not always repeated.

In the case of `C[C@H]([O-])CN1CCN(CCCS(=O)(=O)[O-])CCN(C[C@H](C)O)CC1.O.[Fe+3]` [Fe(L1)(OH2)], in data set [1], the “r1 4.7 T” value was 2.0 mM⁻¹ s⁻¹ and 2.0 ± 0.19 mM⁻¹ s⁻¹; the “r2 4.7 T” value is 6.1 ± 0.77 mM⁻¹ s⁻¹; the “r1 9.4 T” value is 2.0 ± 0.2 mM⁻¹ s⁻¹; the “r1 in HSA 4.7 T” value amounted to 2.5 ± 0.63 mM⁻¹ s⁻¹. Also, the “r2 in HSA 4.7 T” value in data set [1] stood at 5.5 ± 0.98 mM⁻¹ s⁻¹. The “electrode potential (E1/2) vs. Ag/AgCl” value in data set [2] (pH 3, aqueous) stood at 227 mV. Moreover, the “electrode potential (E1/2) vs. NHE” value in data set [2] (pH 3, converted from Ag/AgCl) was 515 mV. Besides, the “electrode potential (E1/2) vs. Ag/AgCl” value in data set [2] (pH 7, aqueous) is on record as −209 mV. In addition, the “electrode potential (E1/2) vs. NHE” value in data set [2] (pH 7, converted from Ag/AgCl) is recorded as 79 mV.
As for `C[C@H]([O-])CN1CCN(C[C@H](C)O)CCN(C[C@H](C)O)CC1.[Fe+3]` [Fe(L2)], in data set [1], the “r1 4.7 T” value is 0.97 ± 0.12 mM⁻¹ s⁻¹, the “r2 4.7 T” value is 1.8 ± 0.47 mM⁻¹ s⁻¹, the “r1 9.4 T” value was 1.4 ± 0.08 mM⁻¹ s⁻¹ and the “r1 in HSA 4.7 T” value came to 1.2 ± 0.22 mM⁻¹ s⁻¹. The “r2 in HSA 4.7 T” value in data set [1] came out at 2.3 ± 1.1 mM⁻¹ s⁻¹. The “electrode potential (E1/2) vs. Ag/AgCl” value in data set [2] (pH 3, aqueous) is approximately 264 mV. Also, the “electrode potential (E1/2) vs. NHE” value in data set [2] (pH 3, converted from Ag/AgCl) is on record as approximately 552 mV. Also, the “electrode potential (E1/2) vs. Ag/AgCl” value in data set [2] (pH 7, aqueous) is approximately −618 mV. In addition, the “electrode potential (E1/2) vs. NHE” value in data set [2] (pH 7, converted from Ag/AgCl) was approximately −330 mV.
